Measured values reported in patent publication US6656949B1, “4-anilinofuro [3,2-c] quinoline derivatives, and preparation processes and uses of the same” (Kaohsiung Medical University, priority 2002, dated 2003).
Structures can show the parent of a compound that is named as a salt. Where two headings read alike, the source gives them in different places.

Tests used:
[1] = test system: CCRF-CEM, HL-60 (TB), K-562, MOLT-4, RPMI-8226, and SR of leukemia; assay: In vitro anticancer assay (NCI tumor cells screen), leukemia panel; assay type: cell-based; conditions: leukemia cell lines, read-out: GI50 (drug molar concentration causing 50% cell growth inhibition), Leukemia
[2] = test system: A549/ATCC, EKVX, HOP-62, HOP-92, NCI-H226, NCI-H23, NCI-H322M, and NCI-H522 of non-small cell lung cancer; assay: In vitro anticancer assay (NCI tumor cells screen), lung cancer panel; assay type: cell-based, human; conditions: non-small cell lung cancer cell lines, read-out: GI50 (drug molar concentration causing 50% cell growth inhibition), Lung Cancer
[3] = test system: COLO 205, HCC-2998, HCT-116, HCT-15, HT29, KM12, and SW-620 of colon cancer; assay: In vitro anticancer assay (NCI tumor cells screen), colon cancer panel; assay type: cell-based, human; conditions: colon cancer cell lines, read-out: GI50 (drug molar concentration causing 50% cell growth inhibition), Colon Cancer
[4] = test system: SF-268, SF-295, SF-539, SNB-19, SNB-75, and U251 of CNS cancer; assay: In vitro anticancer assay (NCI tumor cells screen), CNS cancer panel; assay type: cell-based, human; conditions: CNS cancer cell lines, read-out: GI50 (drug molar concentration causing 50% cell growth inhibition), CNS Cancer
[5] = test system: LOX IMVI, MALME-3M, M14, SK-MEL-2, SK-MEL-28, SK-MEL-5, UACC-62, and UACC-257 of melanoma; assay: In vitro anticancer assay (NCI tumor cells screen), melanoma panel; assay type: cell-based, human; conditions: melanoma cell lines, read-out: GI50 (drug molar concentration causing 50% cell growth inhibition), Melanoma
[6] = test system: IGROV1, OVCAR-3, OVCAR-4, OVCAR-5, OVCAR-8, and SK-OV-3 of ovarian cancer; assay: In vitro anticancer assay (NCI tumor cells screen), ovarian cancer panel; assay type: cell-based, human; conditions: ovarian cancer cell lines, read-out: GI50 (drug molar concentration causing 50% cell growth inhibition), Ovarian Cancer
[7] = test system: 786-0, A498, ACHN, CAKI-1, RXF 393, SN12C, TK-10, and UO-31 of renal cancer; assay: In vitro anticancer assay (NCI tumor cells screen), renal cancer panel; assay type: cell-based, human; conditions: renal cancer cell lines, read-out: GI50 (drug molar concentration causing 50% cell growth inhibition), Renal Cancer
[8] = test system: PC-3 and DU-145 of prostate cancer; assay: In vitro anticancer assay (NCI tumor cells screen), prostate cancer panel; assay type: cell-based, human; conditions: prostate cancer cell lines, read-out: GI50 (drug molar concentration causing 50% cell growth inhibition), Prostate Cancer
[9] = test system: MCF7, MCF7/ADR-RES, MDA-MB-231/ATCC, HS 578T, MDA-MB-435, MDA-N, and T-47D of breast cancer; assay: In vitro anticancer assay (NCI tumor cells screen), breast cancer panel; assay type: cell-based, human; conditions: breast cancer cell lines, read-out: GI50 (drug molar concentration causing 50% cell growth inhibition), Breast Cancer
[10] = test system: 60 human tumor cell lines; assay: In vitro anticancer assay (NCI tumor cells screen), mean over 60 cell lines; assay type: cell-based; conditions: mean values over 60 cell lines tested
UACC-257 = assay: In vitro anticancer assay (NCI tumor cells screen), UACC-257; assay type: cell-based; conditions: Homo sapiens; melanoma cell line UACC-257; read-out: GI50 against UACC-257
UACC-62 = assay: In vitro anticancer assay (NCI tumor cells screen), UACC-62; assay type: cell-based; conditions: Homo sapiens; melanoma cell line UACC-62; read-out: GI50 against UACC-62
UO-31 = assay: In vitro anticancer assay (NCI tumor cells screen), UO-31; assay type: cell-based; conditions: Homo sapiens; renal cancer cell line UO-31; read-out: GI50 against UO-31

With CC(=NO)c1cccc(Nc2nc3ccccc3c3occc23)c1 (as salt: HCl) [Compound 4, 1-[3-(furo[3,2-c]quinolin-4-ylamino)phenyl]ethanone oxime] the melting point was 164 °C (dec.).
In the case of CON=C(C)c1cccc(Nc2nc3ccccc3c3occc23)c1 (as salt: HCl) [Compound 5, 1-[3-(furo[3,2-c]quinolin-4-ylamino)phenyl]ethanone O-methyloxime], the melting point is reported as 222 to 223 °C.
Compound CC(=O)c1cccc(Nc2nc3ccccc3c3occc23)c1 [Compound 3] has a GI50 [1] of 91.2 µM, a GI50 [2] of 15.5 µM and a GI50 [3] of 42.8 µM. It also gave a GI50 [4] of 19.1 µM, a GI50 [5] of 40.2 µM and a GI50 [6] of 28.4 µM. For the same compound, the GI50 [7] was 16.1 µM, the GI50 [8] was 32.5 µM and the GI50 [9] was 34 µM. For the same compound, the GI50 [10] was 22.5 µM.
CC(=NO)c1cccc(Nc2nc3ccccc3c3occc23)c1 [Compound 4, 1-[3-(furo[3,2-c]quinolin-4-ylamino)phenyl]ethanone oxime] showed a GI50 ([1]; Homo sapiens) of 9.26 µM, a GI50 ([2]; Homo sapiens) of 8.98 µM and a GI50 ([3]; Homo sapiens) of 10.3 µM. The GI50 ([4]; Homo sapiens) was 14.8 µM, the GI50 ([5]; Homo sapiens) was 9.82 µM and the GI50 ([6]; Homo sapiens) was 14.5 µM. The GI50 ([7]; Homo sapiens) was 10.3 µM, the GI50 ([8]; Homo sapiens, DU-145) was 12.7 µM and the GI50 ([9]; Homo sapiens) was 12 µM. The GI50 ([10]; Homo sapiens) was 7.8 µM, the GI50 (UACC-257) was < 0.01 µM and the GI50 (UACC-62) was < 0.01 µM. For the same compound, the GI50 (UO-31) was 0.03 µM.
CON=C(C)c1cccc(Nc2nc3ccccc3c3occc23)c1 [Compound 5, 1-[3-(furo[3,2-c]quinolin-4-ylamino)phenyl]ethanone O-methyloxime] showed a GI50 ([1]; Homo sapiens) of 15.4 µM, a GI50 ([2]; Homo sapiens) of 10.8 µM and a GI50 ([3]; Homo sapiens) of 10.3 µM. The GI50 ([4]; Homo sapiens) was 14.8 µM, the GI50 ([5]; Homo sapiens) was 11 µM and the GI50 ([6]; Homo sapiens) was 15.2 µM. It also gave a GI50 ([7]; Homo sapiens) of 10.1 µM, a GI50 ([8]; Homo sapiens, DU-145) of 15.2 µM and a GI50 ([9]; Homo sapiens) of 13.1 µM. The GI50 ([10]; Homo sapiens) was 8.78 µM, the GI50 (UACC-257) was 0.042 µM and the GI50 (UACC-62) was < 0.01 µM. The GI50 (UO-31) was < 0.01 µM.
